Assay results from patent publication US20240122180A1, “FUNGICIDAL HALOMETHYL KETONES AND HYDRATES AND THEIR MIXTURES” (FMC Corporation, priority 2020, published 2024).

Assays:
[1] = tested on: Phakopsora pachyrhizi (the causal agent of Asian soybean rust); assay: Test A: preventive spray on soybean seedlings, visual disease rating (100 = 100% control; * 50 ppm, ** 10 ppm, *** 250 ppm); type: in vivo; conditions: 100 = 100% disease control
Description: (§1) General protocol for preparing test suspensions for Tests A-E: the test compounds were first dissolved in acetone in an amount equal to 3% of the final volume and then suspended at the desired concentration (in ppm) in acetone and purified water (50/50 mix by volume) containing 250 ppm of the surfactant […] (polyhydric alcohol esters). The resulting test suspensions were then used in Tests A-E.
(§2) The test solution was sprayed to the point of run-off on soybean seedlings. The following day the seedlings were inoculated with a spore suspension of Phakopsora pachyrhizi (the causal agent of Asian soybean rust) and incubated in a saturated atmosphere at 22° C. for 24 h, and then moved to a growth chamber at 22° C. for 8 days, after which time visual disease ratings were made.
(§3) Results for Tests A-E are given in Table A. In the Table, a rating of 100 indicates 100% disease control and a rating of 0 indicates no disease control (relative to the controls). An asterisk “*” or a double asterisk “**” or a triple asterisk “***” next to the rating value indicates a 50 ppm, 10 ppm and 250 ppm test suspension was used, respectively. A dash (-) indicates the compound was not tested.

[2] = tested on: Puccinia recondita f. sp. tritici (the causal agent of wheat leaf rust); assay: Test B: preventive spray on wheat seedlings, disease rating (100 = 100% control; * 50 ppm, ** 10 ppm, *** 250 ppm); type: in vivo; conditions: 100 = 100% disease control; for Test B disease control rating / pest or weed control at 10 ppm: 10 ppm test suspension; for pest or weed control at 10 ppm / pest or weed control at 50 ppm: Puccinia recondita; for pest or weed control at 50 ppm: 50 ppm test suspension
Description: as §1
as §2, with “wheat” for “soybean”, “Puccinia recondita f. sp. tritici” for “Phakopsora pachyrhizi”, “wheat leaf” for “Asian soybean”, “20°” for “22°”, “6” for “8”, “time” for “time visual”
as §3

[3] = 10 ppm test suspension, soybean seedlings
[4] = 50 ppm test suspension, 0 = no control

Row | SMILES | Test A disease control rating [1, 3] | Test B disease control rating ([2]; wheat seedlings) | other results
1 | CCOC(=O)c1cnn(C(C)c2ccc(OCC3(C(F)(F)F)OCCO3)cc2)c1 (racemic) [compound 26] | 99% | 0% | 
2 | CCOC(=O)c1cnn(Cc2ccc(OCC3(C(F)(F)F)OCC(C)(C)O3)cc2)c1 (stereo not shown) [Compound 12, ethyl 1-[[4-[[4,4-dimethyl-2-(trifluoromethyl)-1,3-dioxolan-2-yl]methoxy]-phenyl]methyl]-1H-pyrazole-4-carboxylate] |  |  | pest or weed control at 10 ppm ([2]; wheat seedlings): 0%
3 | O=C(NCC(F)(F)F)c1csc(Cc2ccc(OCC(O)(O)C(F)(F)F)cc2)n1 [Compound 68] | 100% | 95% | 
4 | O=C(NCC1CC1)c1csc(Cc2ccc(OCC(O)(O)C(F)(F)F)cc2)n1 [Compound 69] | 98% | 96% | 
5 | CC(C)COC(=O)c1cnn(Cc2ccc(OCC3(C(F)(F)F)OCCO3)cc2)c1 [Compound 126, 2-methylpropyl 1-[[4-[[2-(trifluoromethyl)-1,3-dioxolan-2-yl]methoxy]phenyl]methyl]-1H-pyrazole-4-carboxylate] |  |  | pest or weed control at 10 ppm ([2]; wheat seedlings): 0%
6 | O=C(OCC1CC1)c1cnn(Cc2ccc(OCC3(C(F)(F)F)OCCO3)cc2)c1 [Compound 127, cyclopropylmethyl 1-[[4-[[2-(trifluoromethyl)-1,3-dioxolan-2-yl]methoxy]phenyl]methyl]-1H-pyrazole-4-carboxylate] |  |  | pest or weed control at 10 ppm ([2]; wheat seedlings): 0%
7 | CCOC(=O)c1cnn(CCc2ccc(O/C=C(\OCC)C(F)(F)F)cc2)c1 [Compound 132, ethyl 1-[2-[4-[[(1Z)-2-ethoxy-3,3,3-trifluoro-1-propen-1-yl]oxy]phenyl]ethyl]-1H-pyrazole-4-carboxylate] |  |  | pest or weed control at 10 ppm ([2]; wheat seedlings): 0%
8 | CCOC(=O)c1csc(Cc2ccc(OCC(O)(O)C(F)(F)F)cc2)n1 [Compound 136] | 98% | 83% | 
9 | COCCOC(=O)c1cnn(Cc2ccc(OCC3(C(F)(F)F)OCCO3)cc2)c1 [Compound 162, 2-methoxyethyl 1-[[4-[[2-(trifluoromethyl)-1,3-dioxolan-2-yl]methoxy]phenyl]methyl]-1H-pyrazole-4-carboxylate] |  |  | pest or weed control at 10 ppm ([2]; wheat seedlings): 0%
10 | CC#CCOC(=O)c1cnn(Cc2ccc(OCC3(C(F)(F)F)OCCO3)cc2)c1 [Compound 163, 2-butyn-1-yl 1-[[4-[[2-(trifluoromethyl)-1,3-dioxolan-2-yl]methoxy]phenyl]methyl]-1H-pyrazole-4-carboxylate] |  |  | pest or weed control at 10 ppm ([2]; wheat seedlings): 0%
11 | N#CCCCOC(=O)c1cnn(Cc2ccc(OCC3(C(F)(F)F)OCCO3)cc2)c1 [Compound 171, 3-cyanopropyl 1-[[4-[[2-(trifluoromethyl)-1,3-dioxolan-2-yl]methoxy]phenyl]methyl]-1H-pyrazole-4-carboxylate] |  |  | pest or weed control at 10 ppm ([2]; wheat seedlings): 0%
12 | COCCNC(=O)c1csc(Cc2ccc(OCC(O)(O)C(F)(F)F)cc2)n1 [Compound 223] | 75% | 0% | 
13 | CCOC(=O)c1ccn(Cc2ccc(O/C=C(\OCC)C(F)(F)F)cc2)n1 [Compound 231, ethyl 1-[[4-[[(1Z)-2-ethoxy-3,3,3-trifluoro-1-propen-1-yl]oxy]phenyl]methyl]-1H-pyrazole-3-carboxylate] |  |  | pest or weed control at 10 ppm ([2]; wheat seedlings): 0%
14 | CCOC(=O)c1cnn(Cc2ccc(O/C=C(\OCC)C(F)(F)F)c(F)c2)c1 [Compound 262, ethyl 1-[[4-[[(1Z)-2-ethoxy-3,3,3-trifluoro-1-propen-1-yl]oxy]-3-fluorophenyl]methyl]-1H-pyrazole-4-carboxylate] |  |  | pest or weed control at 10 ppm ([2]; 0 = no control): 0%
15 | CCOC(=O)c1cnn(Cc2cccc(OCC(O)(O)C(F)(F)F)c2)c1 [Compound 266, ethyl 1-[[3-(3,3,3-trifluoro-2,2-dihydroxypropoxy)phenyl]methyl]-1H-pyrazole-4-carboxylate] |  |  | pest or weed control at 50 ppm ([2]; 0 = no control): 74%
16 | CCOC(=O)c1cnn(COCc2ccc(O/C=C(\OCC)C(F)(F)F)cc2)c1 [Compound 297, ethyl 1-[[4-[[(1Z)-2-ethoxy-3,3,3-trifluoro-1-propen-1-yl]oxy]phenylmethoxy]methyl]-1H-pyrazole-4-carboxylate] |  |  | pest or weed control at 10 ppm ([2]; 0 = no control): 0%
17 | CCO/C(=C\Oc1cccc(Cn2cc(C(=O)OC)cn2)c1)C(F)(F)F [Compound 330, methyl 1-[[3-[[(1Z)-2-ethoxy-3,3,3-trifluoro-1-propen-1-yl]oxy]phenyl]methyl]-1H-pyrazole-4-carboxylate] |  |  | pest or weed control at 10 ppm ([2]; 0 = no control): 0%
18 | CCCOC(=O)c1cnn(Cc2cccc(O/C=C(\OCC)C(F)(F)F)c2)c1 [Compound 331, propyl 1-[[3-[[(1Z)-2-ethoxy-3,3,3-trifluoro-1-propen-1-yl]oxy]phenyl]methyl]-1H-pyrazole-4-carboxylate] |  |  | pest or weed control at 10 ppm ([2]; 0 = no control): 0%
19 | CCOC(=O)c1cnn(COc2ccc(OCC(O)(O)C(F)(F)F)cc2)c1 [Compound 366, ethyl 1-[[4-(3,3,3-trifluoro-2,2-dihydroxypropoxy)phenoxy]methyl]-1H-pyrazole-4-carboxylate] |  |  | pest or weed control at 10 ppm ([1]; Phakopsora pachyrhizi, 10 ppm test suspension, 0 = no control): 79%; pest or weed control at 10 ppm ([2]; 0 = no control): 55%
20 | CCOC(=O)c1cnn(Cc2ccc(OCC(O)(NO)C(F)(F)F)cc2)c1 (stereo not shown) [compound 10] | 100% | 86% | 
21 | COC(=O)c1cnn(Cc2ccc(OCC3(C(F)(F)F)OCCO3)cc2)c1 [compound 13] | 99% | 0% | 
22 | CC(C)OC(=O)c1cnn(Cc2ccc(OCC3(C(F)(F)F)OCCO3)cc2)c1 [compound 14] | 100% | 0% | 

Row | SMILES | Test A disease control rating [1, 3] | Test B disease control rating ([2]; wheat seedlings) | other results
23 | C#CCOC(=O)c1cnn(Cc2ccc(OCC3(C(F)(F)F)OCCO3)cc2)c1 [compound 15] | 100% | 0% | 
24 | CCCCCCOC(=O)c1cnn(Cc2ccc(OCC3(C(F)(F)F)OCCO3)cc2)c1 [compound 16] | 99% | 0% | 
25 | O=C(OCc1ccc(Cl)c(Cl)c1)c1cnn(Cc2ccc(OCC3(C(F)(F)F)OCCO3)cc2)c1 [compound 17] | 100% | 0% | 
26 | O=C(OCc1ccc(F)c(F)c1)c1cnn(Cc2ccc(OCC3(C(F)(F)F)OCCO3)cc2)c1 [compound 18] | 100% | 0% | 
27 | CCOC(=O)c1cnn(Cc2ccc(OCC3(C(F)(F)F)OC(=O)CS3)cc2)c1 (stereo not shown) [compound 20] | 98% | 86% | 
28 | CCOC(=O)c1cnn(Cc2ccc(OCC3(C(F)(F)F)NCCO3)cc2)c1 (stereo not shown) [compound 21] | 84% | 23% | 
29 | CN(C)C(=O)C1=NOC(c2ccc(OCC3(C(F)(F)F)OCCO3)cc2)C1 (stereo not shown) [compound 22] | 38% | 0% | 
30 | CCS(=O)(=O)Cc1ccc(OCC2(C(F)(F)F)OCCO2)cc1 [compound 23] | 0% | 19% | 
31 | CS(=O)(=O)c1ccc(OCC2(C(F)(F)F)OCCO2)cc1 [compound 24] | 81% | 91% | 
32 | CN(C)S(=O)(=O)c1ccc(OCC2(C(F)(F)F)OCCO2)cc1 [compound 25] | 0% | 0% | 
33 | COC(=O)NN=Cc1ccc(OCC2(C(F)(F)F)OCCO2)cc1 [compound 27] | 0% | 0% | 
34 | FC(F)(F)C1(COc2ccc(OCC3(C(F)(F)F)OCCO3)cc2)OCCO1 [compound 28] | 0% | 0% | 
35 | OC(O)(CCc1ccc(Cn2ccc3ccccc32)cc1)C(F)(F)F [compound 30] | 0% | 0% | 
36 | CS(=O)(=O)c1ccc(OCC(O)(O)C(F)(F)F)cc1 [compound 31] | 44% | 93% | 
37 | COC(=O)NN=Cc1ccc(OCC(O)(O)C(F)(F)F)cc1 [compound 33] | 96% | 86% | 
38 | CCOC(=O)c1cnn(Cc2cccc(OCC3(C(F)(F)F)OCCO3)c2)c1 [compound 146] |  |  | pest or weed control at 50 ppm ([2]; wheat seedlings): 0%
39 | N#Cc1cccc(OCC2(C(F)(F)F)OCCO2)c1 [compound 147] |  |  | pest or weed control at 50 ppm ([2]; wheat seedlings): 0%
40 | O=[N+]([O-])c1cccc(OCC2(C(F)(F)F)OCCO2)c1 [compound 165] |  |  | pest or weed control at 10 ppm ([2]; wheat seedlings): 0%
41 | O=Cc1cccc(OCC(O)(O)C(F)(F)F)c1 [compound 305] |  |  | pest or weed control at 10 ppm ([2]; 0 = no control): 0%
42 | CCO/C(=C\Oc1cccc(Cn2cc(C(=O)NC3CCCC3)cn2)c1)C(F)(F)F [compound 390] |  |  | Test A disease control rating [1, 4]: 0%
43 | CCO/C(=C\Oc1cccc(Cn2cc(C(=O)NC3CC3)cn2)c1)C(F)(F)F [compound 391] |  |  | Test A disease control rating [1, 4]: 0%
